This note sets out measurements from publication PMC10999085, “Synthesis, anticancer evaluation, molecular docking and ADME study of novel pyrido[4ʹ,3ʹ:3,4]pyrazolo[1,5-a]pyrimidines as potential tropomyosin receptor kinase A (TrKA) inhibitors” (BMC Chemistry, 2024).

“Also recorded” adds a separate entry of the source.

The target in assay [1] is T1, Tropomyosin receptor kinase A (TrKA) (Homo sapiens, UniProt P04629).
T1 construct: purchased
The experiment in a line: Tropomyosin receptor kinase A (TrKA) inhibitory assay (Kinase-Glo MAX kit). The format is biochemical. The settings on record: in vitro kinase assay, recombinant TrkA. An excerpt:
The TrkA assay Kit is designed to measure TrkA activity for screening and profiling applications using Kinase-Glo® MAX as a detection reagent. The TrkA Assay Kit comes in a convenient 96-well format, with enough purified recombinant TrkA enzyme, TrkA substrate, ATP and kinase assay buffer for 100 enzyme reactions. The method was discussed in details in the ESI.
The TrkA assay Kit is designed to measure TrkA activity for screening and profiling applications using Kinase-Glo® MAX as a detection reagent. The TrkA Assay Kit comes in a convenient 96-well format, with enough purified recombinant TrkA enzyme, TrkA substrate, ATP and kinase assay buffer for 100 enzyme reactions.
The assay protocol: all samples and controls should be tested in duplicate. Dissolve 5x Kinase Assay Buffer 1, ATP, and PTK Substrate Poly (Glu:Tyr 4:1) (10 mg/ml). 2). The master mixture (25 μl per well) was prepared by N wells x (6 μl 5x Kinase Assay Buffer 1 + 1 μl ATP (500 μM) + 1 μl PTK Substrate Poly (Glu:Tyr 4:1) (10mg/ml) + 17 μl water). Add 5 μl of Inhibitor solution of each well labeled as “Test Inhibitor”. For the “Positive Control" and “Blank”, add 5 μl of the same solution without inhibitor (Inhibitor buffer). Prepare 3 ml of 1x Kinase assay buffer 1 by mixing 600 μl of 5x Kinase assay buffer 1 with 2400 μl water 3 ml of 1x Kinase assay buffer is sufficient for 100 reactions. To the wells designated as "Blank", add 20 μl of 1x Kinase assay buffer 1and thaw TrkA enzyme on ice. Upon first thaw, briefly spin tube containing enzyme to recover full content of the tube. Calculate the amount of TrkA required for the assay and dilute enzyme to 5 ng/μl with 1x Kinase assay buffer. Store remaining undiluted enzyme in aliquots at -80°C. Then initiate reaction by adding 20 μl of diluted TrkA enzyme to the wells designated “Positive Control” and "Test Inhibitor Control". Incubate at 30°C for 45minutes and thaw Kinase-Glo Max reagent. After the 45 minute reaction, add 50 μl of Kinase-Glo Max reagent to each well. Cover plate with aluminum foil and incubate the plate at room temperature for 15 minutes. Immediately read sample in a luminometer or microtiter-plate capable of reading chemiluminescence. “Blank” value is subtracted from all readings.

In assay [2] the test system is HepG2 cells. Nature of the assay: Annexin V-FITC apoptosis assay. Format: cell-based, human. Conditions: for Apoptosis Early / Apoptosis Late / Necrosis: HepG2, 48 h, Annexin V-FITC/PI; for increase of early apoptosis ratio / increase of late apoptosis rate: HepG2, compared with untreated control cells. As to the method:
HepG-2 cells were harvested and incubated with compounds 7b, 15b, 16a and 16c separately for 48 h. Then, the cells were collected and washed with PBS two successive times followed by centrifugation. After that, the cells were treated with Annexin V-FITC and propidium iodide (PI) using the apoptosis detection kit (BD Biosciences and Annexin V-FITC and PI binding were analyzed by a flow cytometer.
Early and late apoptosis was determined after treatment of HepG2 cells with compounds 7b, 15b, 16a and 16c compared with untreated control cells. The late apoptosis rate increased by about 13, 20, 4 and 3 times, respectively, showing a higher efficiency than the early apoptosis ratio 5, 2, 8 and 6 times, respectively.
As mentioned above, HepG-2 cells were collected and incubated separately with compounds 7b, 15b, 16a and 16c for 48 hr. Cells were then collected and washed twice consecutively with PBS and centrifuged. After that, the cells were treated with Annexin V-FITC and propidium iodide (PI) using an apoptosis detection kit (BD Biosciences, San Jose, CA) according to the manufacturer's instructions. The biding of Annexin V-FITC and PI was analyzed by ﬂow cytometer.

The test system of assay [3] is HepG2 cells. Nature of the assay: In-vitro cell cycle analysis (PI flow cytometry). The format is cell-based, human. The settings on record: for Cell cycle comment (phase of arrest): HepG2; for DNA content %G0-G1 / DNA content %G2/M / DNA content %Pre-G1 / DNA content %S: HepG2, compound at its IC50; for increase of the proportion of cells in the G2/M phase: HepG2, versus control. As to the method:
HepG-2 cells are pre-cultured in 25 cm^2 cell culture flask. RPMI-1640 medium was used. Tested compounds 7b, 9c, 15b, 16a and 16c were used in the cell treatment at their IC50 by dissolving them in the required medium separately. The procedure was discussed in details in the ESI.
For cell cycle analysis, stained DNA from HepG2 cancer cells was treated with compounds 7b, 15b, 16a and 16c that induce cancer cell death by inhibiting TrKA. From the results in Table 5, it can be seen that the proportion of cells at phase in the pre-G1 of compounds 7b, 15b, 16a and 16c increased the proportion of cells at phase in the G2/M by about 4, 4, 2.5 and 3 folds, respectively.
HepG-2 cells were pre-cultured in 25 cm^2 cell culture flasks; RPMI-1640 medium was used. Tested compounds 7b, 15b, 16a and 16c were dissolved separately in the required medium and used in the cell treatment at their IC50. After overnight treatment the cells were collected and fixed gently with 70% (v/v) ethanol in PBS, incubated overnight at 4 °C, and resuspended in PBS containing 40 µg/ml propidium iodide (PI), 0.1 mg/ml RNase and 0.1% (v/v) Triton X-100 in the dark room at after 30 min at 37 °C, the cell cycle analysis was performed using a flow cytometer, equipped with an argon ion laser at a wavelength of 488 nm (Becton-Dickinson, San Josa, CA, USA) and the percentage of cells at G1, S and G2/M was also calculated.
On the technique in general: Flow cytometry measures light scatter and fluorescence of single cells or particles in a stream.

T1 sequence (P04629 33-796): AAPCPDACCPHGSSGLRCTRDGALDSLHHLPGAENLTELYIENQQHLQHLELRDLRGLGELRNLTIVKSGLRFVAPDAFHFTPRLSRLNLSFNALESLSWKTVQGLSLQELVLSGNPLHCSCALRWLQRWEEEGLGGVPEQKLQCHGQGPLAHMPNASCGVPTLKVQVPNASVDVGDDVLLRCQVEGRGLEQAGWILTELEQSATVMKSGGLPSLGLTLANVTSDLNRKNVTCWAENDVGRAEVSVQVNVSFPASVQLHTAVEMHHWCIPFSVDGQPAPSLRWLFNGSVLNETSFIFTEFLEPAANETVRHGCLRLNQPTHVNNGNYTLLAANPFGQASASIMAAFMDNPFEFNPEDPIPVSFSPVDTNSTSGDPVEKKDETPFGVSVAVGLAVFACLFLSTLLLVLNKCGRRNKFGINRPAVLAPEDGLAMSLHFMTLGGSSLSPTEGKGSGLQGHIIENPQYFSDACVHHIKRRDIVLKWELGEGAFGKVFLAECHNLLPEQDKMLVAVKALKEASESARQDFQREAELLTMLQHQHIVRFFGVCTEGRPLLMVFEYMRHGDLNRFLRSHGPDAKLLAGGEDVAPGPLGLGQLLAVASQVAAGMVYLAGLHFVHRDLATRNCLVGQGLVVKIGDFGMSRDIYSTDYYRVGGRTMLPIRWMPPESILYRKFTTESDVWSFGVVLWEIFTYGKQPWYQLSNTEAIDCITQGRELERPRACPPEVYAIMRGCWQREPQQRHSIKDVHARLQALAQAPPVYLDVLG

Turning to `COc1ccc(C=C2C(=O)NC(=O)c3c2nn2c(C)cc(C)nc32)cc1` [Compound 7b], the IC50 in assay [1] is 184 nM. Further, in the assay with HepG2 cells [2], the “Apoptosis Early” value was determined as 5.71%, the “Apoptosis Late” value worked out at 13.72%, the Necrosis is on record as 5.46% and the “increase of early apoptosis ratio” value was found to be 5 times. Moreover, the “increase of late apoptosis rate” value in the assay with HepG2 cells [2] is given as “about 13 times”. This molecule also came in with an apoptosis-inducing effect in the assay with HepG2 cells [2] (HepG2, as stated in the abstract) of 34.70%. Moreover, in the assay with HepG2 cells [3], the “Cell cycle comment (phase of arrest)” value is recorded as “arrested in the cell cycle at G2/M phase; also recorded: arrest in cell cycle at the G2/M phase; also recorded: cell growth arrest@G2/M”, the “DNA content %G0-G1” value is 38.42%, the “DNA content %G2/M” value was found to be 34.70% and the “DNA content %Pre-G1” value stood at 24.89%. For the same molecule, in the assay with HepG2 cells [3], the “DNA content %S” value came out at 26.88% and the “increase of the proportion of cells in the G2/M phase” value (from here on “increase of the proportion of cells”) is “about 4 folds”.
Take `Cc1cc(O)n2nc3c(c2n1)C(=O)NC(=O)C3=NNc1ccccc1` [Compound 16a, 4-Hydroxy-2-methyl-7-(2-phenylhydrazono)pyrido[4ʹ,3ʹ:3,4]pyrazolo[1,5-a]pyrimid-ine-8,10(7H,9H)-dione]: the IC50 in assay [1] was 214 nM. Moreover, in the assay on HepG2 cells [2], the “Apoptosis Early” value came to 8.26%, the “Apoptosis Late” value came to 4.32%, the Necrosis was found to be 2.75% and the “increase of early apoptosis ratio” value is given as 8 times. For the same molecule, the “increase of late apoptosis rate” value in the assay with HepG2 cells [2] was around 4 times. In addition, in the assay with HepG2 cells [3], the “Cell cycle comment (phase of arrest)” value was “arrest in cell cycle at the G2/M phase; also recorded: cell growth arrest@G2/M”, the “DNA content %G0-G1” value stood at 42.11%, the “DNA content %G2/M” value came out at 21.74% and the “DNA content %Pre-G1” value was 15.33%. In the assay with HepG2 cells [3], the “DNA content %S” value was 36.15% and the “increase of the proportion of cells” value was around 2.5 folds.
For the molecule `COc1ccc(NN=C2C(=O)NC(=O)c3c2nn2c(O)cc(C)nc32)cc1` [Compound 16c, 4-Hydroxy-7-(2-(4-methoxyphenyl)hydrazono)-2-methylpyrido[4ʹ,3ʹ:3,4]pyrazolo[1,5-a]pyrimidine-8,10(7H,9H)-dione], the IC50 in assay [1] is 128 nM. Further, in the assay on HepG2 cells [2], the “Apoptosis Early” value came out at 6.31%, the “Apoptosis Late” value is listed as 3.20%, the Necrosis is listed as 2.56% and the “increase of early apoptosis ratio” value is 6 times. Moreover, the “increase of late apoptosis rate” value in the assay on HepG2 cells [2] is around 3 times. For the same molecule, in the assay on HepG2 cells [3], the “Cell cycle comment (phase of arrest)” value is on record as “arrest in cell cycle at the G2/M phase; also recorded: cell growth arrest@G2/M”, the “DNA content %G0-G1” value is 41.61%, the “DNA content %G2/M” value is recorded as 26.45% and the “DNA content %Pre-G1” value was found to be 12.07%. In the assay on HepG2 cells [3], the “DNA content %S” value amounted to 31.94% and the “increase of the proportion of cells” value is listed as around 3 folds.

The term IC50 denotes the point on the concentration scale where inhibition reaches its midpoint.
